Where two headings read alike, the source gives them in different places.

Our source for the IC50 values is US20260226048A1, “MULTI-CYCLIC IRAK AND FLT3 INHIBITING COMPOUNDS AND USES THEREOF” (CHILDREN'S HOSPITAL MEDICAL CENTER, priority 2023, published 2026).

For experiment [1], the target named is T1, FLT3 (Homo sapiens, UniProt P36888).
T1 sequence (P36888 27-993): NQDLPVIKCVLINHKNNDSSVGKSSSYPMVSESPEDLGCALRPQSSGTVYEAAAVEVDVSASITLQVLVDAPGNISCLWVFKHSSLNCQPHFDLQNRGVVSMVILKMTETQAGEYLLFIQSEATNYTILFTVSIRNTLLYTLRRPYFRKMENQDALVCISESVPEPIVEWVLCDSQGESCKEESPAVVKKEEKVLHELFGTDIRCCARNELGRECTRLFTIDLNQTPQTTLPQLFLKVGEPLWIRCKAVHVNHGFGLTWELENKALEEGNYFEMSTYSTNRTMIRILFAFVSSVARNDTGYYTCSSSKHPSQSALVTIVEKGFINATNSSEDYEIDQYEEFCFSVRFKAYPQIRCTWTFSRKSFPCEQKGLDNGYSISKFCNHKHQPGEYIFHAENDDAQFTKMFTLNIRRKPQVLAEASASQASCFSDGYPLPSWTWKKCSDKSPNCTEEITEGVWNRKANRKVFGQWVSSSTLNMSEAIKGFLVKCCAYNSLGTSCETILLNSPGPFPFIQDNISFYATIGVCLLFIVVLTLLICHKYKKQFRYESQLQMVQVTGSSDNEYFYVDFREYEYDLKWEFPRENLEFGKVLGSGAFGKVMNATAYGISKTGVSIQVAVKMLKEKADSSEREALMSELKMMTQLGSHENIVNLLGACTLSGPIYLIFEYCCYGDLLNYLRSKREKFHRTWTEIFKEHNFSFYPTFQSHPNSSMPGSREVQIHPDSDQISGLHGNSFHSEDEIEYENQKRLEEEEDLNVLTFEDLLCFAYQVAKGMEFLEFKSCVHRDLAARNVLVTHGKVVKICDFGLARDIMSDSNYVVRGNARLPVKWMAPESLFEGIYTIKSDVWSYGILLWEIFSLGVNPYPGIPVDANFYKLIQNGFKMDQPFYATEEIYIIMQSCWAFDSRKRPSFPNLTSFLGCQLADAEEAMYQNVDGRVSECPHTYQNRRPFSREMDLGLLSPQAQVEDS
Nature of the experiment: RBC HotSpot Kinase Assay, FLT3. Format: biochemical. Conditions: isolated kinase enzyme, 33P-ATP, P81 filter-binding. Set-up: purchased Reaction Biology (RBC HotSpot). Summed up:
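Radiometric HotSpot assay of catalytic activity with isolated recombinant kinase, possibly truncated or kinase domain only. Buffer: 20 mM Hepes pH 7.5, 10 mM MgCl2, 1 mM EGTA, 0.01% Brij35, 0.02 mg/ml BSA, 0.1 mM Na3VO4, 2 mM DTT, 1% DMSO, with cofactors specific to each kinase.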

Experiment [2] deals with MOLM14 D835Y cells. As to the kind of experiment: MOLM14 D835Y cell viability assay (Cell Titer Glo). It is filed as cell-based. Conditions: cell viability, Cell Titer Glo, 48 hours, read-out: MOLM14 D835Y IC50. Summed up: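 MOLM14 cells with FLT3 D835Y or F691L kinase-domain resistance mutations seeded at 1000 cells/well and exposed to compound for 48 h under standard incubator conditions. Viability read by CellTiter-Glo luminescence after 15 min at room temperature.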

Usually IC50 stands for the concentration that gives 50% inhibition. On to `CC(O)(c1ccc2ncc(-c3ccnc(N[C@@H]4CCCNC4)n3)n2c1)C(F)(F)F` (single isomer, unassigned) [Compound 22a], for which the IC50 is 0.6 nM in experiment [1] and 36 nM in experiment [2].

Turning to `CC(O)(c1ccc2ncc(-c3ccnc(N[C@@H]4CCCNC4)n3)n2c1)C(F)(F)F` (single isomer, unassigned) [Compound 23a], the results for the IC50 in experiment [1] and in experiment [2] were below 0.5 nM and 16 nM, respectively.

For `CC(O)(c1ccc2ncc(-c3ccnc(N[C@H]4CNCC[C@@H]4F)n3)n2c1)C(F)(F)F` (single isomer, unassigned) [Compound 25a], the IC50 in experiment [1] was below 0.5 nM; in experiment [2] (Homo sapiens, MOLM-14, 48 h), 36 nM.

As to `CC(O)(c1ccc2ncc(-c3cncc(N[C@@H]4CCCNC4)n3)n2c1)C(F)(F)F` (single isomer, unassigned) [Compound 28a], the IC50 in experiment [1] was found to be 2 nM; in experiment [2] (Homo sapiens, MOLM-14, 48 h), 204 nM.

`CC(O)(c1ccc2ncc(-c3cncc(N[C@H]4CNCC[C@@H]4F)n3)n2c1)C(F)(F)F` (single isomer, unassigned) [Compound 31a]: the IC50 in experiment [1] stood at 1 nM; in experiment [2], 162 nM.

As for `COc1cc2ncc(-c3nc(N[C@H]4CNCC[C@@H]4F)ncc3F)n2nc1C1CC1` [Compound 1a, 4-(6-cyclopropyl-7-methoxyimidazo[1,2-b]pyridazin-3-yl)-5-fluoro-N-((3S,4S)-4-fluoropiperidin-3-yl)pyrimidin-2-amine], the IC50 stood at 0.5 nM in experiment [1] and 1 nM in experiment [2] (Homo sapiens, MOLM-14, 48 h).

As to `FC(F)COc1cc2ncc(-c3ccnc(N[C@H]4CNCC[C@@H]4F)n3)n2nc1C1CC1` [Compound 4a, 4-(6-cyclopropyl-7-(2,2-difluoroethoxy)imidazo[1,2-b]pyridazin-3-yl)-N-((3 S,4S)-4-fluoropiperidin-3-yl)pyrimidin-2-amine], the IC50 in experiment [1] is below 0.5 nM; in experiment [2] (Homo sapiens, MOLM-14, 48 h), 9 nM.

As for `F[C@H]1CCNC[C@@H]1Nc1nccc(-c2cnc3cc(OC4CC4)c(C4CC4)nn23)n1` [Compound 12a, 4-(7-cyclopropoxy-6-cyclopropylimidazo[1,2-b]pyridazin-3-yl)-N-((3S,4S)-4-fluoropiperidin-3-yl)pyrimidin-2-amine], the IC50 is below 0.5 nM in experiment [1] and 23 nM in experiment [2] (Homo sapiens, MOLM-14, 48 h).

`COc1cc2ncc(-c3nc(N[C@H]4CNCC[C@@H]4F)ncc3F)n2nc1C(C)(C)O` [Compound 45a, 2-(3-(5-fluoro-2-(((3S,4S)-4-fluoropiperidin-3-yl)amino)pyrimidin-4-yl)-7-methoxyimidazo[1,2-b]pyridazin-6-yl)propan-2-ol]: the IC50 was below 0.5 nM in experiment [1] and 15 nM in experiment [2] (Homo sapiens, MOLM-14, 48 h).

As to `CC(C)(O)c1ccc2ncc(-c3nc(N[C@H]4CNCC[C@@H]4F)ncc3F)n2c1` [Compound 46a, 2-(3-(5-fluoro-2-(((3S,4S)-4-fluoropiperidin-3-yl)amino)pyrimidin-4-yl)imidazo[1,2-a]pyridin-6-yl)propan-2-ol], the half-maximal inhibitory concentration (IC50) in experiment [1] was below 0.7 nM; in experiment [2] (Homo sapiens, MOLM-14, 48 h), 33 nM.

Consider `CC(C)(O)c1ccc2ncc(-c3nc(N[C@@H]4CCCNC4)ncc3F)n2c1` [Compound 48a, (R)-2-(3-(5-fluoro-2-(piperidin-3-ylamino)pyrimidin-4-yl)imidazo[1,2-a]pyridin-6-yl)propan-2-ol], for which the IC50 turned out to be 1 nM in experiment [1] and 36 nM in experiment [2] (Homo sapiens, MOLM-14, 48 h).

`COc1cc2ncc(-c3nc(N[C@H]4CNCC[C@@H]4F)ncc3F)n2nc1C1CC(F)(F)C1` [Compound 49a, 4-(6-(3,3-difluorocyclobutyl)-7-methoxyimidazo[1,2-b]pyridazin-3-yl)-5-fluoro-N-((3S,4S)-4-fluoropiperidin-3-yl)pyrimidin-2-amine]: the IC50 in experiment [1] is below 0.5 nM; in experiment [2] (Homo sapiens, MOLM-14, 48 h), 15 nM.

Consider `COc1cc2ncc(-c3nc(N[C@@H]4CCCNC4)ncc3F)n2nc1C1CC2(CCC2)C1` [Compound 59a, (R)-5-fluoro-4-(7-methoxy-6-(spiro[3.3]heptan-2-yl)imidazo[1,2-b]pyridazin-3-yl)-N-(piperidin-3-yl)pyrimidin-2-amine], for which the IC50 in experiment [1] was below 0.5 nM; in experiment [2] (Homo sapiens, MOLM-14, 48 h), 7 nM.

As to `COc1cc2ncc(-c3nc(N[C@H]4CNCC[C@@H]4F)ncc3F)n2nc1C1CC2(CCC2)C1` [Compound 60a, 5-fluoro-N-((3S,4S)-4-fluoropiperidin-3-yl)-4-(7-methoxy-6-(spiro[3.3]heptan-2-yl)imidazo[1,2-b]pyridazin-3-yl)pyrimidin-2-amine], the IC50 was below 0.5 nM in experiment [1] and 11 nM in experiment [2] (Homo sapiens, MOLM-14, 48 h).

`COc1cc2ncc(-c3ccnc(N[C@H]4CNCC[C@@H]4F)n3)n2nc1C1CCC1` [Compound 79a, 4-(6-cyclobutyl-7-methoxyimidazo[1,2-b]pyridazin-3-yl)-N-((3S,4S)-4-fluoropiperidin-3-yl)pyrimidin-2-amine]: the IC50 is below 0.5 nM in experiment [1] and 20 nM in experiment [2] (Homo sapiens, MOLM-14, 48 h).

Regarding `COc1cc2ncc(-c3nc(N[C@H]4CNCC[C@@H]4F)ncc3F)n2nc1C1COC1` [Compound 92a, 5-fluoro-N-((3S,4S)-4-fluoropiperidin-3-yl)-4-(7-methoxy-6-(oxetan-3-yl)imidazo[1,2-b]pyridazin-3-yl)pyrimidin-2-amine], the IC50 was below 0.5 nM in experiment [1] and 5 nM in experiment [2] (Homo sapiens, MOLM-14, 48 h).

Regarding `CC(C)(O)c1cn2c(-c3nc(N[C@H]4CNCC[C@@H]4F)ncc3F)cnc2cn1` [Compound 100a, 2-(3-(5-fluoro-2-(((3S,4S)-4-fluoropiperidin-3-yl)amino)pyrimidin-4-yl)imidazo[1,2-a]pyrazin-6-yl)propan-2-ol], the IC50 is 1 nM in experiment [1] and 90 nM in experiment [2] (Homo sapiens, MOLM-14, 48 h).

Turning to `COc1cc2ncc(-c3nc(N[C@H]4CNC[C@@H]4F)ncc3F)n2nc1N1CCCS1(=O)=O` [Compound 111a, 2-(3-(5-fluoro-2-(((3S,4S)-4-fluoropyrrolidin-3-yl)amino)pyrimidin-4-yl)-7-methoxyimidazo[1,2-b]pyridazin-6-yl)isothiazolidine 1,1-dioxide], the IC50 in experiment [1] was below 0.5 nM; in experiment [2] (Homo sapiens, MOLM-14, 48 h), 13 nM.

Turning to `COc1cc2ncc(-c3nc(N[C@H]4CNCC[C@@H]4F)ncc3F)n2nc1N1CCCS1(=O)=O` [Compound 112a, 2-(3-(5-fluoro-2-(((3S,4S)-4-fluoropiperidin-3-yl)amino)pyrimidin-4-yl)-7-methoxyimidazo[1,2-b]pyridazin-6-yl)isothiazolidine 1,1-dioxide], the IC50 in experiment [1] is below 0.5 nM; in experiment [2] (Homo sapiens, MOLM-14, 48 h), 3 nM.
